Each structure is given as a SMILES string. A value given as a limit tells only on which side of the number the result lay.

Broadly, the IC50 is the concentration needed to halve the response being measured.

The target of one assay is T1, Chk1 (Homo sapiens, UniProt O14757).
T1 construct: purchased Upstate Biotechnology
T1 sequence (O14757 1-476): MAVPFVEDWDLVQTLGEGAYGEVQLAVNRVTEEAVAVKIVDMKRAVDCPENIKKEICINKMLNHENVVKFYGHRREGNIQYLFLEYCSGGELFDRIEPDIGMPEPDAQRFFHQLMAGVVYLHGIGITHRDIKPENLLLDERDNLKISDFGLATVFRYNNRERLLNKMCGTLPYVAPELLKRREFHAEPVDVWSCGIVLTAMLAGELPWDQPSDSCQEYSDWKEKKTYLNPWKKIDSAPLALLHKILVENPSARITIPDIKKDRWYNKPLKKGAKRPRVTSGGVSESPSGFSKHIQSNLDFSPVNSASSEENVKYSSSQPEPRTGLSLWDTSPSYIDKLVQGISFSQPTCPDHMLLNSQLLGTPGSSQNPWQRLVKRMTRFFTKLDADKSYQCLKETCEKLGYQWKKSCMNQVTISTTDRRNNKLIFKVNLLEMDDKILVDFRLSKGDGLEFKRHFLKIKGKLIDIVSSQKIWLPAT
Put plainly: Chk1 kinase assay: incorporation of γ-33P ATP into immobilized myelin basic protein. It counts as biochemical. To be noted: Table 11, Chk1 only; class symbols A-D; read-out: Chk1 IC50. The procedure, abridged: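 Enzyme activity is measured as γ-33P transfer from ATP onto immobilized MBP over 1 h at room temperature, with Chk1 at 10 nM/10 μM unlabeled ATP and Chk2 at 20 nM/30 μM unlabeled ATP. Compounds are tested in 1% DMSO.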
Regarding `Nc1ncc(-c2cccc(C(=O)NCc3cc(F)c(F)c(F)c3)c2)nc1C(=O)N[C@H]1CCNC1` [Example 814, 3-amino-N-[(3S)-pyrrolidin-3-yl]-6-[3-({[(3,4,5-trifluorophenyl)methyl]amino}carbonyl)phenyl]pyrazine-2-carboxamide], the concentration for half-maximal inhibition (IC50) is under 50 nM.
Consider `Nc1ncc(-c2cccc(CNC(=O)c3ccc(I)cc3)c2)nc1-c1nc([C@H]2CCCNC2)n[nH]1` [Example 942, N-{[3-(5-amino-6-{3-[(3S)-piperidin-3-yl]-1H-1,2,4-triazol-5-yl}pyrazin-2-yl)phenyl]methyl}-4-iodobenzamide], for which the IC50 is under 50 nM.
The same measure, in the same setting: next, `Nc1ncc(-c2cccc(C(=O)N[C@H]3CCCN3)c2)nc1C(=O)N[C@H]1CCCNC1` [Example 928, 3-amino-N-[(3S)-piperidin-3-yl]-6-(3-{[(2S)-pyrrolidin-2-ylamino]carbonyl}phenyl)pyrazine-2-carboxamide]: under 50 nM; `Nc1ncc(-c2cccc(C(=O)NCc3ccccc3F)c2)nc1-c1nnc([C@H]2CCCNC2)[nH]1` [Example 834, 3-(5-amino-6-{5-[(3S)-piperidin-3-yl]-4H-1,2,4-triazol-3-yl}pyrazin-2-yl)-N-[(2-fluorophenyl)methyl]benzamide]: under 50 nM; `COCCNC(=O)c1cccc(-c2cnc(N)c(C(=O)N[C@H]3CCCNC3)n2)c1` [Example 879, 3-amino-6-[3-({[2-(methyloxy)ethyl]amino}carbonyl)phenyl]-N-[(3S)-piperidin-3-yl]pyrazine-2-carboxamide]: 50 to 1000 nM.
The same measure, in the same setting: the result for `Nc1ncc(-c2cccc(C(=O)N[C@@H]3CCNC3)c2)nc1C(=O)N[C@H]1CCCNC1` [Example 876, 3-amino-N-[(3S)-piperidin-3-yl]-6-(3-{[(3R)-pyrrolidin-3-ylamino]carbonyl}phenyl)pyrazine-2-carboxamide] reads under 50 nM.

Still in this assay, the particulars now being: Table 11; Chk1 only; read-out: Chk1 IC50.
Turning to `Nc1ncc(-c2cccc(C(=O)N[C@H]3CCc4ccccc43)c2)nc1C(=O)N[C@H]1CCNC1` [Example 644, 3-amino-6-(3-{[(1S)-2,3-dihydro-1H-inden-1-ylamino]carbonyl}phenyl)-N-[(3S)-pyrrolidin-3-yl]pyrazine-2-carboxamide], the IC50 is under 50 nM.
Consider `Nc1ncc(-c2cccc(C(=O)NCc3ccccc3)c2)nc1C(=O)NC1CCNC1` (stereo not drawn) [Example 568, 3-amino-6-(3-{[(phenylmethyl)amino]carbonyl}phenyl)-N-pyrrolidin-3-ylpyrazine-2-carboxamide], for which the IC50 was in the range of 50 to 1000 nM.
Same read-out and setting: the result for `Nc1ncc(-c2cccc(C(=O)NC3COc4ccccc43)c2)nc1C(=O)N[C@H]1CCNC1` (stereo partly drawn) [Example 779, 3-amino-6-{3-[(2,3-dihydro-1-benzofuran-3-ylamino)carbonyl]phenyl}-N-[(3S)-pyrrolidin-3-yl]pyrazine-2-carboxamide] reads 50 to 1000 nM.
Same read-out and setting: next, `Nc1ncc(-c2cccc(C(=O)NCc3c(F)cccc3Cl)c2)nc1C(=O)N[C@H]1CCNC1` [Example 746, 3-amino-6-[3-({[(2-chloro-6-fluorophenyl)methyl]amino}carbonyl)phenyl]-N-[(3S)-pyrrolidin-3-yl]pyrazine-2-carboxamide]: 50 to 1000 nM; `CN(C)c1ccc(C(=O)NCCNC(=O)c2nc(-c3cccc(C(=O)NCc4ccccc4)c3)cnc2N)cc1` [Example 692, 3-amino-N-[2-({[4-(dimethylamino)phenyl]carbonyl}amino)ethyl]-6-(3-{[(phenylmethyl)amino]carbonyl}phenyl)pyrazine-2-carboxamide]: at least 10000 nM; `Nc1ncc(-c2cccc(C(=O)NCc3ccccc3)c2)nc1C(=O)N1CCNCC1` [Example 593, 3-[5-amino-6-(piperazin-1-ylcarbonyl)pyrazin-2-yl]-N-(phenylmethyl)benzamide]: at least 10000 nM.
Still for that read-out and setting: the result for `Nc1ncc(-c2cccc(CO)c2)nc1-c1nc(-c2ccc(Cl)cc2)n[nH]1` [Example 581, (3-{5-amino-6-[3-(4-chlorophenyl)-1H-1,2,4-triazol-5-yl]pyrazin-2-yl}phenyl)methanol] reads at least 10000 nM.
In the case of `Nc1ncc(-c2cccc(CN[C@@H]3CCc4ccccc43)c2)nc1-c1nc(C2CCCNC2)n[nH]1` (stereo partly drawn) [Example 683, 5-(3-{[(1R)-2,3-dihydro-1H-inden-1-ylamino]methyl}phenyl)-3-(3-piperidin-3-yl-1H-1,2,4-triazol-5-yl)pyrazin-2-amine], the IC50 was under 50 nM.
The same measure, in the same setting: next, `COc1ccc(CNC(=O)c2cccc(-c3cnc(N)c(C(=O)N[C@H]4CCN(C(=O)OC(C)(C)C)C4)n3)c2)cc1` [Example 738, 1,1-dimethylethyl (3S)-3-{[(3-amino-6-{3-[({[4-(methyloxy)phenyl]methyl}amino)carbonyl]phenyl}pyrazin-2-yl)carbonyl]amino}pyrrolidine-1-carboxylate]: 50 to 1000 nM; `CNC(=O)c1nc(-c2cccc(CN[C@H]3c4ccccc4C[C@H]3OC)c2)cnc1N` [Example 460, 3-amino-N-methyl-6-[3-({[(1S,2R)-2-(methyloxy)-2,3-dihydro-1H-inden-1-yl]amino}methyl)phenyl]pyrazine-2-carboxamide]: 50 to 1000 nM; `Nc1ncc(-c2cccc(CO)c2)nc1-c1nnc(-c2ccccc2)[nH]1` [Example 551, {3-[5-amino-6-(5-phenyl-4H-1,2,4-triazol-3-yl)pyrazin-2-yl]phenyl}methanol]: 50 to 1000 nM.
Still for that read-out and setting: next, `CN(C)c1ccc(CN2CC[C@H](NC(=O)c3nc(-c4cccc(C(=O)NCc5ccccc5)c4)cnc3N)C2)cc1` [Example 690, 3-amino-N-((3S)-1-{[4-(dimethylamino)phenyl]methyl}pyrrolidin-3-yl)-6-(3-{[(phenylmethyl)amino]carbonyl}phenyl)pyrazine-2-carboxamide]: 1000 to 10000 nM.
On the same count and under the same terms, next, `CC(C)(C)OC(=O)N1CCC[C@@H](NC(=O)c2nc(-c3cccc(C(=O)N[C@H]4CCc5ccccc54)c3)cnc2N)C1` [Example 794, 1,1-dimethylethyl (3R)-3-({[3-amino-6-(3-{[(1S)-2,3-dihydro-1H-inden-1-ylamino]carbonyl}phenyl)pyrazin-2-yl]carbonyl}amino)piperidine-1-carboxylate]: 1000 to 10000 nM; `C/C(=N\Nc1ccc(OC(F)(F)F)cc1)c1nc(-c2cccc(C(=O)NCc3ccccc3)c2)cnc1N` [Example 634, 3-[5-amino-6-((1E)-N-{4-[(trifluoromethyl)oxy]phenyl}ethanehydrazonoyl)pyrazin-2-yl]-N-(phenylmethyl)benzamide]: at least 10000 nM.

The same assay, now with this note: read-out: Chk1 IC50.
For the compound `CCCc1ccc(CNC(=O)c2cccc(-c3cnc(N)c(C(=O)NC)n3)c2)cc1` [Example 424, 3-amino-N-methyl-6-[3-({[(4-propylphenyl)methyl]amino}carbonyl)phenyl]pyrazine-2-carboxamide], the IC50 lay within 50 to 1000 nM.
On the same count and under the same terms, next, `CNC(=O)c1nc(-c2noc(Cc3ccccc3)n2)cnc1N` [Example 70, 3-amino-N-methyl-6-[5-(phenylmethyl)-1,2,4-oxadiazol-3-yl]pyrazine-2-carboxamide]: at least 10000 nM; `CNC(=O)c1nc(-c2cccc(C(=O)NCc3ccccc3F)c2)cnc1N` [Example 289, 3-amino-6-[3-({[(2-fluorophenyl)methyl]amino}carbonyl)phenyl]-N-methylpyrazine-2-carboxamide]: 50 to 1000 nM; `CNC(=O)c1nc(-c2cccc(CNCc3c(F)cccc3F)c2)cnc1N` [Example 402, 3-amino-6-[3-({[(2,6-difluorophenyl)methyl]amino}methyl)phenyl]-N-methylpyrazine-2-carboxamide]: 50 to 1000 nM.
Same read-out and setting: the result for `CNC(=O)c1nc(-c2cccc(C(=O)NCc3ccc(C)cc3)c2)cnc1N` [Example 101, 3-amino-N-methyl-6-[3-({[(4-methylphenyl)methyl]amino}carbonyl)phenyl]pyrazine-2-carboxamide] reads 50 to 1000 nM.
`CNC(=O)c1nc(-c2cccc(CNC(=O)Cc3ccc(Cl)cc3)c2)cnc1N` [Example 331, 3-amino-6-[3-({[(4-chlorophenyl)acetyl]amino}methyl)phenyl]-N-methylpyrazine-2-carboxamide]: the IC50 was 50 to 1000 nM.
With `CNC(=O)c1nc(-c2cccc(C(=O)N[C@H]3CCN(Cc4ccccc4)C3)c2)cnc1N` [Example 196, 3-amino-N-methyl-6-[3-({[(3S)-1-(phenylmethyl)pyrrolidin-3-yl]amino}carbonyl)phenyl]pyrazine-2-carboxamide], the IC50 was 50 to 1000 nM.
On the same count and under the same terms, next, `CNC(=O)c1nc(-c2cccc(C(=O)NCC3CCCN3)c2)cnc1N` (stereo not drawn) [Example 367, 3-amino-N-methyl-6-(3-{[(pyrrolidin-2-ylmethyl)amino]carbonyl}phenyl)pyrazine-2-carboxamide]: 50 to 1000 nM.
The same measure, in the same setting: the result for `CNC(=O)c1nc(-c2cccc(C(=O)NCc3cccc(Cl)c3C)c2)cnc1N` [Example 293, 3-amino-6-[3-({[(3-chloro-2-methylphenyl)methyl]amino}carbonyl)phenyl]-N-methylpyrazine-2-carboxamide] reads 50 to 1000 nM; that for `CNC(=O)c1nc(-c2cccc(CNCc3cc(F)c(F)c(F)c3)c2)cnc1N` [Example 419, 3-amino-N-methyl-6-[3-({[(3,4,5-trifluorophenyl)methyl]amino}methyl)phenyl]pyrazine-2-carboxamide], under 50 nM.

These data come from patent publication US7704995B2 (Exelixis, Inc., priority 2003, dated 2010).
